Results on six molecules are retold here after ChEMBL document CHEMBL3351570, “Design and synthesis of 2-phenylnaphthalenoids as inhibitors of DNA topoisomeraseIIα and antitumor agents” (Eur J Med Chem, 2014).

Active and inactive are the calls of the source. No cut-off for these calls is given here.

Data set [1] relates to Nucleic Acid. The data set can be described thus: Induction of DNA intercalation in Escherichia coli pBR322 DNA at 100 uM by DNA gel electrophoresis. The format is nucleic-acid assay.
Data set [2] has as its system MDA-MB-231. As to the kind of experiment: Antitumor activity against human MDA-MB-231 cells xenografted in BALB/c-nu mouse assessed as reduction in tumor weight at 20 mg/kg, iv dosed every other day for 15 days. The data set is classed as functional. To be noted: MDA-MB-231, 360 h.
The subject of data set [3] is MDA-MB-231. The data set can be described thus: Increase in histone H3 Ser10 phosphorylation in human MDA-MB-231 cells at 10 uM after 24 hrs by Western blot method. The format is functional, cell-based. On the technique in general: In western blotting, separated proteins are transferred to a membrane and probed.
In a further data set the test system is Mus musculus. The data set can be described thus: Toxicity in nude BALB/c mouse xenografted with human MDA-MB-231 cells assessed as reduction in body weight at 20 mg/kg, iv dosed every other day for 15 days (reference value: 24.2 g). As to conditions: in vivo, 360 h. The data set is classed as organism-based. More on the design: dose 20 mg/kg, route intravenous. For orientation: A xenograft is tissue or cells of one species grown in another, often human tumour cells in immunodeficient mice.

The next data set relates to A549. The data set can be described thus: Cytotoxicity against human A549 cells after 72 hrs by sulforhodamine B assay. The data set is classed as functional, cell-based. To be noted: A549, 72 h. (In general: The SRB assay estimates cell density from bound dye.)
Data set [4] concerns the target DNA topoisomerase 2-alpha (Homo sapiens) (UniProt P11388). To be noted: 100 uM.
Description: Inhibition of human recombinant topoisomerase 2alpha assessed as increase in linear DNA using circular supercoiled plasmid DNA substrate at 100 uM incubated for 30 mins by ethidium bromide staining based DNA gel electrophoresis
Another data set concerns HeLa. The data set can be described thus: Cytotoxicity against human HeLa cells after 72 hrs by sulforhodamine B assay. The format is functional, cell-based.
Data set [5] relates to MDA-MB-231. As to the kind of experiment: Induction of DNA damage in human MDA-MB-231 cells assessed as increase in ATM S1981 phosphorylation at 10 uM after 24 hrs by Western blot method. The data set is classed as functional, cell-based.
In data set [6] the target is DNA topoisomerase 2-alpha (Homo sapiens) (UniProt P11388). As to the kind of experiment: Inhibition of human recombinant topoisomerase 2alpha assessed as reduction in pBR322 DNA relaxation at 100 uM incubated for 30 mins by DNA gel electrophoresis.
Data set [7] has as its system MDA-MB-231. As to the kind of experiment: Cytotoxicity against human MDA-MB-231 cells after 72 hrs by sulforhodamine B assay. To be noted: MDA-MB-231, 72 h. The data set is classed as functional, cell-based.
For data set [8], the target named is T1, DNA topoisomerase (Bos taurus) (UniProt A0JN73).
T1 sequence (whole entry): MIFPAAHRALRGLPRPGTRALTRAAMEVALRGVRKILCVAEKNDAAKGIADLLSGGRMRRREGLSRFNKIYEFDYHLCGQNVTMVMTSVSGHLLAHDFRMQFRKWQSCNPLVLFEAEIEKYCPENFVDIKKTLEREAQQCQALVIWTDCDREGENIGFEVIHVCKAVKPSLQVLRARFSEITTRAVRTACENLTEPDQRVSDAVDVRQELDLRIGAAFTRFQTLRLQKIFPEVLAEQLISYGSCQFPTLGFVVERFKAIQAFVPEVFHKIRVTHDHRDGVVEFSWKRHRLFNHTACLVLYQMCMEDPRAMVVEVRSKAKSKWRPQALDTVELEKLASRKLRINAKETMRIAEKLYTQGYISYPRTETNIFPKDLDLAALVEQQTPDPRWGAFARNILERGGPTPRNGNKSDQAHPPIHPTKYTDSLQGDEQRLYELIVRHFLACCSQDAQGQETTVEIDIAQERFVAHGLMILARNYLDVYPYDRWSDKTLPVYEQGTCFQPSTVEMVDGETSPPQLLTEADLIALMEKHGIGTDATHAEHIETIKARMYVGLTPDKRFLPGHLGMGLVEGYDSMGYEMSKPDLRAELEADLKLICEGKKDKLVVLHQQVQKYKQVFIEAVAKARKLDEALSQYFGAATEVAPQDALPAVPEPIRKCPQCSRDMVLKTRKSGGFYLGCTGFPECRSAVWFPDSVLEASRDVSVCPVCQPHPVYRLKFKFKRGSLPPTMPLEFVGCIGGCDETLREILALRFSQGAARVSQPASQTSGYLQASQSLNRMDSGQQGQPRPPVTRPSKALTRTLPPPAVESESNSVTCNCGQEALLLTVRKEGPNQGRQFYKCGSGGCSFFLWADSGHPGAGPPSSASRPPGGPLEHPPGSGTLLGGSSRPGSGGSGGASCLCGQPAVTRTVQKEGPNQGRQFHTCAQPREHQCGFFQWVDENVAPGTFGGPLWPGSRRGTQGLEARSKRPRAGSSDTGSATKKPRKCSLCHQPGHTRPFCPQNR
The data set can be described thus: Inhibition of calf thymus DNA topoisomerase 1 assessed as reduction in pBR322 DNA relaxation at 100 uM incubated for 30 mins by DNA gel electrophoresis.

The target of data set [9] is DNA topoisomerase 2-alpha (Homo sapiens) (UniProt P11388). As to the kind of experiment: Inhibition of human recombinant topoisomerase 2alpha assessed as reduction in kDNA decatenation at 100 uM incubated for 30 mins by DNA gel electrophoresis.
Data set [10] deals with Nucleic Acid. As to the kind of experiment: Induction of DNA intercalation in Escherichia coli pBR322 DNA at 50 to 200 uM by DNA gel electrophoresis. The data set is classed as nucleic-acid assay.
Data set [11] concerns the target DNA topoisomerase 2-alpha (Homo sapiens) (UniProt P11388). As to the kind of experiment: Inhibition of human recombinant topoisomerase 2alpha assessed as increase in linear DNA using circular supercoiled plasmid DNA substrate at 100 to 200 uM incubated for 30 mins by ethidium bromide staining based DNA gel electrophoresis.
In data set [12] the test system is MDA-MB-231. The data set can be described thus: Induction of DNA damage in human MDA-MB-231 cells assessed as ATR expression level at 1 to 5 uM after 24 hrs by Western blot method. The data set is classed as functional, cell-based.
Data set [13] relates to MDA-MB-231. The data set can be described thus: Induction of DNA damage in human MDA-MB-231 cells assessed as increase in ATR S428 phosphorylation at 1 to 5 uM after 24 hrs by Western blot method. The format is functional, cell-based.
The test system of data set [14] is MDA-MB-231. As to the kind of experiment: Induction of DNA damage in human MDA-MB-231 cells assessed as increase in gammaH2AX protein expression at 1 to 5 uM after 24 hrs by Western blot method. The data set is classed as functional, cell-based.
Data set [15] has as its system MDA-MB-231. The data set can be described thus: Induction of cell cycle arrest in human MDA-MB-231 cells assessed as accumulation at G2/M phase at 5 uM after 24 hrs by propidium iodide staining based flow cytometry (reference value: 25.19%). The format is functional.
Data set [16] concerns MDA-MB-231. As to the kind of experiment: Induction of DNA damage in human MDA-MB-231 cells assessed as ATM S1981 phosphorylation at 1 to 5 uM after 24 hrs by Western blot method. The data set is classed as functional, cell-based.
Data set [17] deals with MDA-MB-231. The data set can be described thus: Induction of DNA damage in human MDA-MB-231 cells assessed as increase in p53 expression level at 1 to 5 uM after 24 hrs by Western blot method. The data set is classed as functional, cell-based.
The target in data set [18] is DNA topoisomerase 2-alpha (Homo sapiens) (UniProt P11388). As to the kind of experiment: Inhibition of human recombinant topoisomerase 2alpha assessed as reduction in pBR322 DNA relaxation at 200 uM incubated for 30 mins by DNA gel electrophoresis.
Data set [19] relates to MDA-MB-231. As to the kind of experiment: Induction of DNA damage in human MDA-MB-231 cells assessed as ATM expression level at 1 to 5 uM after 24 hrs by Western blot method. The format is functional, cell-based.
Data set [20] deals with MDA-MB-231. As to the kind of experiment: Induction of DNA damage in human MDA-MB-231 cells assessed as increase in p53 S46 phosphorylation at 1 to 5 uM after 24 hrs by Western blot method. The format is functional, cell-based.
The test system of data set [21] is MDA-MB-231. As to the kind of experiment: Increase in cyclin B protein expression in human MDA-MB-231 cells at 1 to 5 uM after 24 hrs by Western blot method. The format is functional, cell-based.
Data set [22] deals with DNA topoisomerase 2-alpha (Homo sapiens) (UniProt P11388). As to the kind of experiment: Inhibition of human recombinant topoisomerase 2alpha assessed as reduction in pBR322 DNA relaxation incubated for 30 mins by DNA gel electrophoresis.
For data set [23], the system named is MDA-MB-231. The data set can be described thus: Increase in histone H3 Ser10 phosphorylation in human MDA-MB-231 cells at 1 to 5 uM after 24 hrs by Western blot method. The data set is classed as functional, cell-based.
The test system of data set [24] is MDA-MB-231. As to the kind of experiment: Induction of cell cycle arrest in human MDA-MB-231 cells assessed as reduction in accumulation at G0/G1 phase at 5 uM after 24 hrs by propidium iodide staining based flow cytometry. The format is functional.
The test system of data set [25] is MDA-MB-231. The data set can be described thus: Induction of cell cycle arrest in human MDA-MB-231 cells assessed as reduction in accumulation at S phase at 5 uM after 24 hrs by propidium iodide staining based flow cytometry. The format is functional.
Data set [26] concerns MDA-MB-231. The data set can be described thus: Effect on cdc2 protein expression in human MDA-MB-231 cells at 1 to 5 uM after 24 hrs by Western blot method. The format is functional, cell-based.

Sequence of DNA topoisomerase 2-alpha (Homo sapiens) (P11388 whole entry): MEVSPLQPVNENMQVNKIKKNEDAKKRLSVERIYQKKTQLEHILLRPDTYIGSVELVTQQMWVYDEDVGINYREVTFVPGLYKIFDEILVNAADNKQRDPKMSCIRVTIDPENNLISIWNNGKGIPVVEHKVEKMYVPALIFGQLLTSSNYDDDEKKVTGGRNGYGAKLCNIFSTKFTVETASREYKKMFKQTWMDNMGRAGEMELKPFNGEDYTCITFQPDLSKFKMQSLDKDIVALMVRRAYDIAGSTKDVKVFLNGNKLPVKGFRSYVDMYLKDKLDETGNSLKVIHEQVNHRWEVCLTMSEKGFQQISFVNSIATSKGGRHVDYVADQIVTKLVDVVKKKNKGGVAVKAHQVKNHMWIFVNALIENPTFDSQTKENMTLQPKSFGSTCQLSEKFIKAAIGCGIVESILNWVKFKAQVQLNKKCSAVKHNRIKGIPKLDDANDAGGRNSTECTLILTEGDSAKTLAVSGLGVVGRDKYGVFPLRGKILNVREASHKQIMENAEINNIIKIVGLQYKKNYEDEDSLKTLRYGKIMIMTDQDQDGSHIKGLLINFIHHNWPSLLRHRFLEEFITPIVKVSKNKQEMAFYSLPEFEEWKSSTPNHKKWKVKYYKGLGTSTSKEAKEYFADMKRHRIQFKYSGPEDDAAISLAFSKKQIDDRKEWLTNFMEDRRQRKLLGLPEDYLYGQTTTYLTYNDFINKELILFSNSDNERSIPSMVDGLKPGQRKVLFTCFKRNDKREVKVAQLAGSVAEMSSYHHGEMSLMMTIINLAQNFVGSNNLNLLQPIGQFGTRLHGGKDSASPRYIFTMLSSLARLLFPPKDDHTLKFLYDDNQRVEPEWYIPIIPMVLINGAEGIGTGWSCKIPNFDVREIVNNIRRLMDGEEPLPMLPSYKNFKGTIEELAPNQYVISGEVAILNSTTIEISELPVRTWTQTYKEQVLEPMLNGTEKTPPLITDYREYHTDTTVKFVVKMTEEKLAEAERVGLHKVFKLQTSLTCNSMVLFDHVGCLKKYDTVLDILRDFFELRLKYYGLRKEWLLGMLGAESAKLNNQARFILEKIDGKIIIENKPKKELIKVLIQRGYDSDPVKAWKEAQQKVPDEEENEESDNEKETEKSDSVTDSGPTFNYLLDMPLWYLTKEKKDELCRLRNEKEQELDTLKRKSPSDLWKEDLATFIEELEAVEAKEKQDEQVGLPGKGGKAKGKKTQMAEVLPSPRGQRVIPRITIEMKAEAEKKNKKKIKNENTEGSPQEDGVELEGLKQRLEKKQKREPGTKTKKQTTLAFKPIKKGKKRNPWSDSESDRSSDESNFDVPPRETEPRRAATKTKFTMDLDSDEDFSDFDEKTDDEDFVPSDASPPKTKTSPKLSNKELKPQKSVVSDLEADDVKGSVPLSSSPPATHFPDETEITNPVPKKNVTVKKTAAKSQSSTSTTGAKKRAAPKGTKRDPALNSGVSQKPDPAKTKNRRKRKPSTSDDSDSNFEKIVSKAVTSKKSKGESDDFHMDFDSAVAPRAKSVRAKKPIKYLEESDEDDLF

As to `COc1cccc2c1C(=O)c1c(O)c3c(c(O)c1C2=O)C[C@@](O)(C(=O)CO)C[C@@H]3O[C@H]1C[C@H](N)[C@H](O)[C@H](C)O1`, in the data set on Nucleic Acid [1], the result was Active.

Turning to `COc1cc([C@@H]2c3cc4c(cc3[C@@H](O[C@@H]3O[C@@H]5CO[C@@H](C)O[C@H]5[C@H](O)[C@H]3O)[C@H]3COC(=O)[C@H]23)OCO4)cc(OC)c1O` [ETOPOSIDE], in the data set with MDA-MB-231 [2], the inhibition in vivo (in general, the relative decrease from the control value, in per cent) at 20 mg/kg was 69%. In the data set with MDA-MB-231 [3], the result was inactive. For the same molecule, the Activity in the data set with Mus musculus was determined as 20.1 g. Besides, the concentration for half-maximal inhibition (IC50) (usually the midpoint of a concentration-inhibition curve) is 13.8 µM in the data set on A549, 4360 nM with HeLa and 3670 nM in the data set with MDA-MB-231 [7]. The inhibition result in [4] and in data set [6] was “Active” in each case. In the data set on MDA-MB-231 [5], the outcome was Active.

In the case of `COc1cc(-c2ccc3cc(O)ccc3c2)cc(C=O)c1O`, the inhibition entry in [8], in data set [6] and in data set [9] was “Active” each time. Besides, the values for the IC50 in the data set on A549, in the data set on HeLa and in the data set on MDA-MB-231 [7] were 1.1 µM, 1800 nM and 500 nM, respectively.

In the case of `O=Cc1cc(-c2ccc3cc(O)ccc3c2)ccc1O`, the inhibition result in data set [8], in data set [6] and in data set [9] was “Active” throughout. The IC50 with A549 was found to be 5 µM; in the data set with HeLa it was 2100 nM; in the data set on MDA-MB-231 [7], 2400 nM.

In the case of `OCc1cc(-c2ccc3cc(O)ccc3c2)ccc1O`, the result in the data set with Nucleic Acid [10], in the data set on MDA-MB-231 [12], in the data set on MDA-MB-231 [16], with MDA-MB-231 [19] and in the data set with MDA-MB-231 [26] was inactive. Besides, the inhibition entry in data set [11], in [18], in data set [6] and in data set [9] was “Active” each time. The outcome in the data set with MDA-MB-231 [13], in the data set with MDA-MB-231 [17], with MDA-MB-231 [20], in the data set with MDA-MB-231 [21], in the data set with MDA-MB-231 [23] and with MDA-MB-231 [24] was Active. The outcome in the data set on MDA-MB-231 [25] was Active. Also, in the data set on MDA-MB-231 [2], the inhibition in vivo at 20 mg/kg was 43.1%. Besides, the Activity result with MDA-MB-231 [14] is “Dose-dependent effect”; with MDA-MB-231 [15] it was 77.79%; in the data set with Mus musculus it was “Non-toxic”. The values for the IC50 in the data set on A549, in the data set with HeLa and in the data set on MDA-MB-231 [7] were 2.8 µM, 1300 nM and 1000 nM, respectively. For the same molecule, in data set [22], the inhibition entry was “Dose-dependent effect”.

In the case of `CC(=O)c1cc(-c2ccc3cc(O)ccc3c2)cc([N+](=O)[O-])c1O`, the inhibition entry in data set [8], in data set [6] and in data set [9] was “Active” throughout. Besides, the half-maximal inhibitory concentration (IC50) in the data set with A549 was determined as 4.2 µM; with HeLa it was 2100 nM; in the data set with MDA-MB-231 [7] it was 1400 nM.
